Measured values taken from US20210100905A1, “APPLICATION OF COMPOUND OR TRADITIONAL CHINESE MEDICINE EXTRACT IN PREPARATION OF NUCLEIC ACID DELIVERY AGENT, AND RELATED PRODUCTS” (INSTITUTE OF BASIC MEDICAL SCIENCES CHINESE ACADEMY OF …, priority 2018, published 2021).

Key:
[1] = In vivo intragastric delivery of small RNA with lipid No. 41, samples after 6 hours; parameters: species or system mice; details: each small RNA 1 nmol/animal
Description: [Experimental method] 6-8 weeks old mice, 22-24 g, were raised in SPF room of the Animal Center of the Institute of Basic Medical Sciences of Chinese Academy of Medical Sciences. The mice were fasted for 12 hours before intragastric administration. The mice were randomly divided into 3 groups: (1) control group, 400 μl DEPC-treated water, intragastric administration; (2) free uptake group, small RNA (PGY-sRNA-26, PGY-sRNA-32 and PGY-sRNA-23), each small RNA 1 nmol/animal, dissolved in 400 μl DEPC-treated water, intragastric administration; (3) lipid No. 41 group: a mixture of small RNA (PGY-sRNA-26 and PGY-sRNA-32) and lipid No. 41 prepared by heating method was intragastrically administered, each small RNA 1 nmol/animal, lipid No. 41 10 μl/animal, dissolved in 400 μl DEPC-treated water. All tissue and organ samples were collected after 6 hours of intragastric administration. All small RNAs were single-stranded RNA modified by 3p- terminal 2-O-methylation.

A549 cells = assay: Western blot of knockdown protein after lipid-mediated siRNA delivery; assay type: cell-based, human; details: FIG. 82; reverse evaporation method; LAMP2, XPN2, Ssu72, CPSF4 or β-actin siRNA 400 nM
Description: (§1) 3.3 Western blot detection of protein expression levels 3.3.1 MRC-5 cell (pulmonary embryonic fibroblast), and A549 cell (human lung adenocarcinoma cell) were cultured to logarithmic growth phase, and then plated into 12-well plates at a cell density of 6×10^5/1 mL medium/well; MRC-5 cells were cultured in Eagle's MEM medium (MEM, Gibco); A549 cells were cultured in Ham's F-12 medium (HyClone); followed by incubation overnight at 37° C., and the follow-up experiments were performed after the cells were attached to the walls.
(§2) 4) Lipid nucleic acid mixture: the mixture of lipid and nucleic acid prepared from the step 2 were added into cells and mixed, and the final concentration of nucleic acid was 400 nM.
(§3) 3.3.3 After 24 hours of treatment, the cells were stimulated with the stimulant (1 μg/mL poly (I:C) (P1530, Sigma-Aldrich) as double-stranded RNA viruses mimetics) or 3 ng/mL transforming growth factor TGF(31 (Pepro Tech)). […]

MRC-5 cells = assay: Western blot of fibronectin/α-SMA after lipid-mediated delivery of anti-fibrotic HJT-sRNA, TGF-β1 stimulation; assay type: cell-based; details: FIG. 102; nucleic acid 400 nM; TGF-β1 3 ng/mL, 72 hours
Description: as §1, §2, §3

[2] = In vivo delivery of lipid nucleic acid mixture by gavage, RT-qPCR in blood and lung; parameters: species or system C57 mice; details: FIG. 14, 6 hours, whole blood and lung
Description: 1. Preparation of lipid nucleic acid mixture: the mixture of lipid No. 11 or No. 12 with nucleic acid, and the mixture of the lipid combination of No. 1/2/4/9/14/18/19/20/21/22/23/24/25/26/27/28/29/30/32, No. 3/8/10/11/12/13, and No. 6/15/16/17/31 with nucleic acid were prepared by reverse evaporation and boiling method (refer to steps 2.1-2.2).
2. Gavage were performed on 6-8 weeks old male C57 mice: 200 μl/aminal, grouped as follows:
3. Sample collection: 6 hours after gavage, mouse whole blood (500 μl) and lung (110 mg) were collected by 1.5 mL TRIzol-LS or 3 mL TRIzol, respectively, homogenized and then frozen under −80° C. for storage.
4. […]

## CCCCCCCCCCCCCCCCCCC[C@@H](O)[C@@H](N)CO [No. 41, Sphinganine (d22:0)]
[1]; FIG. 108, lipid 10 μl/animal
  entry of small RNA into the blood: could promote the entry of small RNA into the blood, protecting it from degradation in the blood
[1]; FIG. 109, lipid 10 μl/animal
  entry of small RNA into the stomach cells: could promote the entry of small RNA into the stomach cells, protecting it from degradation in the stomach
[1]; FIG. 110, lipid 10 μl/animal
  entry of small RNA into small intestinal cells: could promote the entry of small RNA into small intestinal cells, protecting it from degradation in the small intestine
[1]; FIG. 111, lipid 10 μl/animal
  entry of small RNA into the liver: could promote the entry of small RNA into the liver, protecting it from degradation in the liver
A549 cells
  protein knockdown effect of delivered siRNA vs RNAiMAX (Western blot): significantly higher than the inhibitory effect of HJT-sRNA-m7 mediated by RNAiMAX

## CCCCCCCC/C=C\CCCCCCCCCCCC(=O)O[C@H](COC(=O)CCCCCCCCCCCCCCC)COP(=O)(O)OCCN [No. 40, (2-aminoethoxy) [(2R)-2-[(13Z)-docos-13-enoyloxy]-3-(hexadecanoyloxy)propoxy] phosphinic acid]
MRC-5 cells
  fibronectin protein expression after delivery of double-stranded HJT-sRNA-m7 (Western blot): mediated anti-fibrotic double-stranded RNA HJT-sRNA-m7 entry into MRC-5 cells to down-regulate fibronectin protein expression

## CCCCC/C=C\C/C=C\CCCCCCCC(=O)O[C@H](COC(=O)CCCCCCCCCCCCCCC)COP(=O)([O-])OCC[N+](C)(C)C [No. 12, (2-{[(2R)-3-(hexadecanoyloxy)-2-[(9Z,12Z)-octadeca-9,12-dienoyloxy]propylphosphonato]oxy}ethyl) trimethylazanium]
[2]
  entry of HJT-sRNA-m7 into blood and lung: could promote entry of small fragments of nucleic acids into the blood and lung

## CCCCC/C=C\C/C=C\CCCCCCCC(=O)O[C@H](COC(=O)CCCCCCCCCCCCCCCCC)COP(=O)([O-])OCC[N+](C)(C)C [No. 11, trimethyl(2-{[(2R)-2-[(9Z, 12Z)-octadeca-9,12-dienoyloxy]-3-(octadecanoyloxy)propyl-phosphonato]oxy}ethyl) azanium]
[2]
  entry of HJT-sRNA-m7 into blood and lung: could promote entry of small fragments of nucleic acids into the blood and lung
